pIC50: −log10 of the molar value. Read-outs that look alike come from different tables or passages of the source.
What was measured:
[1] = biological target: human TLR7 (Homo sapiens (Human), UniProt Q9NYK1); assay: TLR7 inhibition reporter assay (HEK-Blue SEAP); type: cell-based; settings: HEK-Blue cells overexpressing human TLR7, gardiquimod 7.5 μM stimulation
[2] = biological target: human TLR8 (Homo sapiens (Human), UniProt Q9NR97); assay: TLR8 inhibition reporter assay (HEK-Blue SEAP);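 note: SEAP driven by IFN-β minimal promoter with five NF-κB and AP-1 sites, compounds tested 0.05 nM to 50 µM, 22 h incubation, inhibition relative to agonist plus DMSO wells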
[3] = biological target: human TLR9 (Homo sapiens (Human), UniProt Q9NR96); assay: TLR9 inhibition reporter assay (HEK-Blue SEAP);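 note: SEAP driven by IFN-β minimal promoter carrying five NF-κB and AP-1 sites, 22 h at 37 °C, compounds 0.05 nM–50 µM, inhibition scaled between agonist-plus-DMSO and reference-inhibitor wells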
Protocol: HEK-Blue™-cells (Invivogen) overexpressing human TLR7, TLR8 or TLR9 receptors were used for screening inhibitors of these receptors using an inducible SEAP (secreted embryonic alkaline phosphatase) reporter gene under the control of the IFN-β minimal promoter fused to five NF-κB and AP-1-binding sites. Briefly, cells are seeded into Greiner 384 well plates (15000 cells per well for TLR7, 20,000 for TLR8 and 25,000 for TLR9) and then treated with test compounds in DMSO to yield a final dose response concentration range of 0.05 nM-50 μM. After a 30 minute compound pre-treatment at room temperature, the cells are then stimulated with a TLR7 ligand (gardiquimod at a final concentration of 7.5 μM), TLR8 ligand (R848 at a final concentration of 15.9 μM) or TLR9 ligand (ODN2006 at a final concentration of 5 nM) to activate NF-κB and AP-1 which induce the production of SEAP. After a 22 hour incubation at 37° C., 500 CO2, SEAP levels are determined with the addition of HEK-Blue™ Detection reagent (Invivogen), a cell culture medium that allows for detection of SEAP, according to manufacturer's specifications.

[4] = read-out: TLR8 IC50; HEK-Blue cells overexpressing human TLR8, R848 15.9 μM stimulation, SEAP reporter
[5] = read-out: TLR9 IC50; HEK-Blue cells overexpressing human TLR9, ODN2006 5 nM stimulation, SEAP reporter
[6] = read-out: TLR8 IC50; HEK-Blue cells overexpressing human TLR8; R848 15.9 μM stimulation; SEAP reporter
[7] = read-out: TLR9 IC50; HEK-Blue cells overexpressing human TLR9; ODN2006 5 nM stimulation; SEAP reporter

Chain of human TLR7 (Q9NYK1 27-1049): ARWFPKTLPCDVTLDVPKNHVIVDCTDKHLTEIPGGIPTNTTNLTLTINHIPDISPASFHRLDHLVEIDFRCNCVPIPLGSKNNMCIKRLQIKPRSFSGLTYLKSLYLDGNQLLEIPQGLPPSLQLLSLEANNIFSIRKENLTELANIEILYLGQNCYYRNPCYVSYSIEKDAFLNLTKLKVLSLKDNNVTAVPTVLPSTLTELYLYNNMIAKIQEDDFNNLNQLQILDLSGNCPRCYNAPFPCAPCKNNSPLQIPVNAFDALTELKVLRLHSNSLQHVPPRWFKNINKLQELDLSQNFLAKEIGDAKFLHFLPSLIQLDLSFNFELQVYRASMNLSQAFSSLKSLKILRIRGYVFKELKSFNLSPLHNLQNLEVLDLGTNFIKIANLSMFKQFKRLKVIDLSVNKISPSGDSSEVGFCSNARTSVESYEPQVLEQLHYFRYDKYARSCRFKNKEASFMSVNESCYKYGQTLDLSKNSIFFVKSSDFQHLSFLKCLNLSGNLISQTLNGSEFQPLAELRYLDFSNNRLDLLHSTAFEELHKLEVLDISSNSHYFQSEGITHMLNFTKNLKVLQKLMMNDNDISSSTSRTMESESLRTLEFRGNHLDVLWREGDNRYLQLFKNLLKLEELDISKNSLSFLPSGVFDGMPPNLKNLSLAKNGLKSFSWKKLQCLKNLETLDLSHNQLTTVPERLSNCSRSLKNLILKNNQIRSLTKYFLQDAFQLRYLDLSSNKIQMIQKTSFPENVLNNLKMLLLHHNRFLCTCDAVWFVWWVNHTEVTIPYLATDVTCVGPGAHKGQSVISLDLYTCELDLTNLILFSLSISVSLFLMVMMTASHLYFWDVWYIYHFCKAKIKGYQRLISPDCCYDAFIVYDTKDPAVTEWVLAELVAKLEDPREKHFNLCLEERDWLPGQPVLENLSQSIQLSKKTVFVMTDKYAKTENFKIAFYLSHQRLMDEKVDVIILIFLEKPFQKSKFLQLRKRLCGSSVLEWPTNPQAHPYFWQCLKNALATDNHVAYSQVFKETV
Chain of human TLR9 (Q9NR96 26-1032): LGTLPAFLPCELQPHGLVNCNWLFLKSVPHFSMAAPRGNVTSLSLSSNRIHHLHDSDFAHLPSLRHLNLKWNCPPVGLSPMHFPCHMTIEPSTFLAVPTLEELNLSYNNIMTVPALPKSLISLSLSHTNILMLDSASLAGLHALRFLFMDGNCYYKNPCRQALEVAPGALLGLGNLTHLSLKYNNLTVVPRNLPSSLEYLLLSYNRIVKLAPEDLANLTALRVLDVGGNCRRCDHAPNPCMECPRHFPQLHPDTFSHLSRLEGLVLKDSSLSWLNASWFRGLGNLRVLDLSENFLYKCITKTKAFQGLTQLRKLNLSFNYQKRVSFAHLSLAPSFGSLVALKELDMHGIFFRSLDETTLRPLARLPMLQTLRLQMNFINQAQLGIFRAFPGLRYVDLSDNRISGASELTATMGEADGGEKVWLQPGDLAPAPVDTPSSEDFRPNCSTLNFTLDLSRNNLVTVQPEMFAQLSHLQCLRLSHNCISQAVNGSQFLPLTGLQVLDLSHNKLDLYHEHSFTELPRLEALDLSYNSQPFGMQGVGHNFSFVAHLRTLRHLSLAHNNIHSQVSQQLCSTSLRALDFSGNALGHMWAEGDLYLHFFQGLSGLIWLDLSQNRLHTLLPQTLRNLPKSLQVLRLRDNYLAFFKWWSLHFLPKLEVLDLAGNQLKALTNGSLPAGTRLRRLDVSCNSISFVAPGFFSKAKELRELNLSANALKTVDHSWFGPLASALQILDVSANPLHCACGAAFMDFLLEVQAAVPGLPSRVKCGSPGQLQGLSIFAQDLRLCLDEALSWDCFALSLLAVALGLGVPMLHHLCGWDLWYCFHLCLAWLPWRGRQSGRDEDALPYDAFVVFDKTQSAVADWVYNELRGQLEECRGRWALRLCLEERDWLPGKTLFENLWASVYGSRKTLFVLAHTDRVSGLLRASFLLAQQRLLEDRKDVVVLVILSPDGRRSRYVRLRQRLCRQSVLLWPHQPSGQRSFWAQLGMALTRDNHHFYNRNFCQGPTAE
Chain of human TLR8 (Q9NR97 27-1041): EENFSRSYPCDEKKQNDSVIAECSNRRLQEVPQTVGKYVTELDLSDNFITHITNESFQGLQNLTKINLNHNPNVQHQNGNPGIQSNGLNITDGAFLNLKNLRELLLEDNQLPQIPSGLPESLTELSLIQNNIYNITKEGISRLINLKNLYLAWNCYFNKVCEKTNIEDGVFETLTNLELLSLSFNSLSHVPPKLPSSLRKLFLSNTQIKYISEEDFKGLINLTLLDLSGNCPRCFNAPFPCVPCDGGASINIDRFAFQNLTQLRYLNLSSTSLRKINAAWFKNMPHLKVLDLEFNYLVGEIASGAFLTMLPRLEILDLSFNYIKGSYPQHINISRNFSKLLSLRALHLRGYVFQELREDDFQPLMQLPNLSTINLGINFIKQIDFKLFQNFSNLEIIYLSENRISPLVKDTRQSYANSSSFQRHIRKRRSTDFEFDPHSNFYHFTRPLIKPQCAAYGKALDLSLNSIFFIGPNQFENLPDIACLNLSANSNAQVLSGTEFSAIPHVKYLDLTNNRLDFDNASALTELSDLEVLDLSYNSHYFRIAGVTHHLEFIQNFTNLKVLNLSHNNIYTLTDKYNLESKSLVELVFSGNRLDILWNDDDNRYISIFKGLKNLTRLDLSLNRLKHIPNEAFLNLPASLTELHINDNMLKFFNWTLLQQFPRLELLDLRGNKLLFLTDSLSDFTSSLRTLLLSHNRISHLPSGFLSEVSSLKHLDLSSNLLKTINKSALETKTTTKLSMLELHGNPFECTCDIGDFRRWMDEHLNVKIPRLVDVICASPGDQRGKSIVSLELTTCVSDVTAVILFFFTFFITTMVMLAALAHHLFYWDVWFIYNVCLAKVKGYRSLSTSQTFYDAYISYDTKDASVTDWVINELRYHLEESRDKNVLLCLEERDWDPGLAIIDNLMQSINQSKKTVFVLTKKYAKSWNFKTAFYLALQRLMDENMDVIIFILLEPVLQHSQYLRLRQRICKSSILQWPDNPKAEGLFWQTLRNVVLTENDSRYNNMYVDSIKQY

Row | Structure (SMILES) | pIC50 [1] | pIC50 [2, 4] | pIC50 [3, 5] | pIC50 [2, 6] | pIC50 [3, 7] | pIC50 [2] | pIC50 [3]
1 | COc1cc(-c2[nH]c3cnc(C4CCC(NC(C)C)CC4)c(F)c3c2C(C)C)cn2ncnc12 (stereo not drawn) [Example 73] | 9.06 | 9.11 | 5.53 | – | – | – | –
2 | Cc1cc(-c2[nH]c3cnc(C4CCN(C(=O)CN(C)C)CC4)cc3c2C(C)C)cn2ncnc12 [Example 5, 2-(dimethylamino)-1-(4-(3-isopropyl-2-(8-methyl-[1,2,4]triazolo[1,5-a]pyridine-6-yl)-1H-pyrrolo[2,3-c]pyridin-5-yl)piperidin-1-yl)ethan-1-one] | 8.02 | 7.00 | 6.60 | – | – | – | –
3 | COc1cc(-c2[nH]c3cnc(C4CCC(NCC(C)(C)C)CC4)c(F)c3c2C(C)C)cn2ncnc12 (stereo not drawn) [Example 229] | 8.06 | – | – | 8.38 | 5.84 | – | –
4 | Cc1c(-c2[nH]c3cnc(N4CCN(CC(C)(C)C)CC4)c(F)c3c2C(C)C)cn2ncnc2c1C [Example 432] | 6.99 | 8.57 | < 4.30 | – | – | – | –
5 | COc1cc(-c2[nH]c3cnc(N4CC5(CN(C(=O)CN6CCOCC6)C5)C4)c(F)c3c2C(C)C)cn2ncnc12 [Example 367, 1-(6-(4-fluoro-3-isopropyl-2-(8-methoxy-[1,2,4]triazolo[1,5-a]pyridin-6-yl)-1H-pyrrolo[2,3-c]pyridin-5-yl)-2,6-diazaspiro[3.3]heptan-2-yl)-2-morpholinoethan-1-one] | 6.80 | 7.28 | < 4.30 | – | – | – | –
6 | CCN(C)C1CCN(c2ncc3[nH]c(-c4cn5ncnc5c(C)c4C)c(C(C)C)c3c2F)CC1 [Example 83] | 8.89 | 8.85 | 5.04 | – | – | – | –
7 | COc1cc(-c2[nH]c3cnc(C4CCC(NCC5(C)COC5)CC4)c(C)c3c2C(C)C)cn2ncnc12 (stereo not drawn) [Example 270] | 8.59 | 8.49 | 6.41 | – | – | – | –
8 | Cc1c(-c2[nH]c3cnc(C4CCC(NC5COC5)CC4)c(F)c3c2C(C)C)cn2ncnc2c1C (stereo not drawn) [Example 174] | 9.11 | 9.17 | 5.11 | – | – | – | –
9 | Cc1c(-c2[nH]c3cnc(C4CCC(NC(C)C)CC4)c(C)c3c2C(C)C)cn2ncnc2c1C (stereo not drawn) [Example 61] | 7.55 | 7.46 | 6.46 | – | – | – | –
10 | COc1cc(-c2[nH]c3cnc(C4CCC(NC5CCOCC5)CC4)c(C)c3c2C(C)C)cn2ncnc12 (stereo not drawn) [Example 176] | 7.80 | 7.74 | 6.49 | – | – | – | –
11 | Cc1c(-c2[nH]c3cnc(N4CCN(C(C)C)CC4)c(F)c3c2C(C)C)cn2ncnc2c1C [Example 412] | 8.17 | 9.54 | 5.24 | – | – | – | –
12 | Cc1c(N2CCC(NCC(C)(C)C)CC2)ncc2[nH]c(-c3cc(C)c4ncnn4c3)c(C(C)C)c12 [Example 112] | 8.80 | 8.64 | 5.73 | – | – | – | –
13 | COc1cc(-c2[nH]c3cnc(C4CCN(CC(=O)N(C)C)CC4)c(F)c3c2C(C)C)cn2ncnc12 [Example 34] | 8.60 | 8.70 | 5.82 | – | – | – | –
14 | COc1cc(-c2[nH]c3cnc(N4CCC(NC5CCOCC5)CC4)cc3c2C(C)C)cn2ncnc12 [Example 321] | 8.55 | 9.19 | 6.00 | – | – | – | –
15 | COc1cc(-c2[nH]c3cnc(C4CCC(N(C)C(C)C)CC4)c(F)c3c2C(C)C)cn2ncnc12 (stereo not drawn) [Example 76] | 9.24 | 8.42 | 6.02 | – | – | – | –
16 | COc1cc(-c2[nH]c3cnc(N4CC5(C4)CN(C(C)C)C5)c(F)c3c2C(C)C)cn2ncnc12 [Example 373] | 8.09 | 8.15 | 5.24 | – | – | – | –
17 | Cc1c(N2CCC(N(C)C(C)C)CC2)ncc2[nH]c(-c3cc(C)c4ncnn4c3)c(C(C)C)c12 [Example 124] | 9.42 | 9.19 | 6.04 | – | – | – | –
18 | COc1cc(-c2[nH]c3cnc(N4CCC(NC(=O)CN(C)C)CC4)cc3c2C(C)C)cn2ncnc12 [Example 344] | 8.77 | 8.46 | 6.59 | – | – | – | –
19 | Cc1c(-c2[nH]c3cnc(C4CCC(NCC5(C)COC5)CC4)c(C)c3c2C(C)C)cn2ncnc2c1C (stereo not drawn) [Example 203] | 7.57 | 8.03 | 6.29 | – | – | – | –
20 | Cc1c(-c2[nH]c3cnc(C4CCC(NC5CCOC5)CC4)cc3c2C(C)C)cn2ncnc2c1C (stereo not drawn) [Example 349] | 8.96 | 8.44 | 6.46 | – | – | – | –
21 | COc1cc(-c2[nH]c3cnc(N4CCC(NC5CCOCC5)CC4)c(F)c3c2C(C)C)cn2ncnc12 [Example 100] | 9.10 | 9.60 | 5.63 | – | – | – | –
22 | CCN1CCN(c2ncc3[nH]c(-c4cn5ncnc5c(C)c4C)c(C(C)C)c3c2F)CC1 [Example 433] | 8.52 | 9.49 | 5.16 | – | – | – | –
23 | COc1cc(-c2[nH]c3cnc(N4CCC(NC(C)C(C)C)CC4)cc3c2C(C)C)cn2ncnc12 (stereo not drawn) [Example 313] | 8.54 | 9.57 | 5.62 | – | – | – | –

Row | Structure (SMILES) | pIC50 [1] | pIC50 [2, 4] | pIC50 [3, 5] | pIC50 [2, 6] | pIC50 [3, 7] | pIC50 [2] | pIC50 [3]
24 | COc1cc(-c2[nH]c3cnc(C4CCNCC4)c(C)c3c2C(C)C)cn2ncnc12 [Example 1, 6-(3-isopropyl-4-methyl-5-(piperidin-4-yl)-1H-pyrrolo[2,3-c]pyridin-2-yl)-8-methoxy-[1,2,4] triazolo[1,5-a]pyridine] | 8.33 | 7.05 | 6.26 | – | – | – | –
25 | Cc1c(-c2[nH]c3cnc(N4CCN(CC#N)C[C@H]4C)c(F)c3c2C(C)C)cn2ncnc2c1C [Example 467] | 8.55 | – | – | 8.85 | 4.77 | – | –
26 | COc1cc(-c2[nH]c3cnc(C4CCC(N(C)C(C)C)CC4)c(F)c3c2C(C)C)cn2ncnc12 (stereo not drawn) [Example 227] | 8.72 | – | – | 8.59 | 5.36 | – | –
27 | Cc1c(-c2[nH]c3cnc(N4CCN(C5COC5)CC4)c(F)c3c2C(C)C)cn2ncnc2c1C [Example 409] | 8.60 | 8.47 | < 4.30 | – | – | – | –
28 | COc1cc(-c2[nH]c3cnc(C4CCC(NC5COC5)C4)cc3c2C(C)C)cn2ncnc12 (stereo not drawn) [Example 178] | 8.15 | 8.57 | 6.49 | – | – | – | –
29 | Cc1c(-c2[nH]c3cnc(C4CCC(NC5CCOCC5)CC4)c(F)c3c2C(C)C)cn2ncnc2c1C (stereo not drawn) [Example 134] | 9.01 | 9.57 | 5.99 | – | – | – | –
30 | Cc1c(-c2[nH]c3cnc(N4CC5(CN(CC(C)C)C5)C4)c(F)c3c2C(C)C)cn2ncnc2c1C [Example 402] | 7.52 | 8.36 | 5.22 | – | – | – | –
31 | Cc1c(-c2[nH]c3cnc(N4CC5(C4)CN(C4COC4)C5)c(F)c3c2C(C)C)cn2ncnc2c1C [Example 400, 6-(4-fluoro-3-isopropyl-5-(6-(oxetan-3-yl)-2,6-diazaspiro[3.3]heptan-2-yl)-1H-pyrrolo[2,3-c]pyridin-2-yl)-7,8-dimethyl-[1,2,4]triazolo[1,5-a]pyridine] | 7.09 | – | – | – | – | 8.80 | < 4.30
32 | COc1cc(-c2[nH]c3cnc(C4CCN(C(=O)CN(C)C)CC4)c(C)c3c2C(C)C)cn2ncnc12 [Example 32] | 7.40 | 6.91 | 6.55 | – | – | – | –
33 | CCN(C)C1CCC(c2cc3c(C(C)C)c(-c4cc(OC)c5ncnn5c4)[nH]c3cn2)C1 (stereo not drawn) [Example 272] | 8.15 | 7.66 | 6.41 | – | – | – | –
34 | COc1cc(-c2[nH]c3cnc(C4CCC(N5CC6(COC6)C5)CC4)c(F)c3c2C(C)C)cn2ncnc12 (stereo not drawn) [Example 161] | 8.62 | 8.34 | 6.53 | – | – | – | –
35 | Cc1c(-c2[nH]c3cnc(N4CCN(C(C)C)C[C@H]4C)c(F)c3c2C(C)C)cn2ncnc2c1C [Example 461] | 8.27 | – | – | 8.82 | 5.05 | – | –
36 | COc1cc(-c2[nH]c3cnc(C4CCN(C(=O)CN(C)C)CC4)c(F)c3c2C(C)C)cn2ncnc12 [Example 37] | 8.48 | 8.36 | 6.39 | – | – | – | –
37 | CCN(C)C1CCC(c2ncc3[nH]c(-c4cn5ncnc5c(C)c4C)c(C(C)C)c3c2F)CC1 (stereo not drawn) [Example 135] | 9.62 | 9.32 | 5.19 | – | – | – | –
38 | CCN(C)C1CCC(c2ncc3[nH]c(-c4cc(OC)c5ncnn5c4)c(C(C)C)c3c2F)CC1 (stereo not drawn) [Example 77] | 8.57 | 8.35 | 6.39 | – | – | – | –
39 | Cc1c(N2CCC(NC3CCOCC3)CC2)ncc2[nH]c(-c3cc(C)c4ncnn4c3)c(C(C)C)c12 [Example 265] | 9.44 | 9.38 | 5.99 | – | – | – | –
40 | COc1cc(-c2[nH]c3cnc(N4CCN(CC(=O)N(C)C)C[C@H]4C)c(F)c3c2C(C)C)cn2ncnc12 [Example 446] | 7.74 | 7.68 | < 4.30 | – | – | – | –
41 | COc1cc(-c2[nH]c3cnc(N4CCC(NC56CC(C5)C6)CC4)c(C)c3c2C(C)C)cn2ncnc12 [Example 56] | 8.74 | 8.82 | 6.00 | – | – | – | –
42 | Cc1c(-c2[nH]c3cnc(N4CCC(NC5COC5)CC4)c(F)c3c2C(C)C)cn2ncnc2c1C [Example 146] | 8.96 | 9.34 | 5.18 | – | – | – | –
43 | CNC1CCN(c2ncc3[nH]c(-c4cc(OC)c5ncnn5c4)c(C(C)C)c3c2F)CC1 [Example 191] | 9.04 | 8.96 | 5.46 | – | – | – | –
44 | Cc1c(-c2[nH]c3cnc(C4CCC(NC[C@@H](F)C(C)(C)O)CC4)c(F)c3c2C(C)C)cn2ncnc2c1C (stereo partly drawn) [Example 240] | 9.02 | 9.41 | 5.56 | – | – | – | –
45 | COc1cc(-c2[nH]c3cnc(C4CCN(CCS(C)(=O)=O)CC4)c(F)c3c2C(C)C)cn2ncnc12 [Example 14] | 8.41 | 8.47 | 4.89 | – | – | – | –
46 | Cc1c(-c2[nH]c3cnc(N4CCC(NCC5(C)COC5)CC4)c(C)c3c2C(C)C)cn2ncnc2c1C [Example 54] | 9.05 | 9.52 | 6.03 | – | – | – | –
